# Experimental data from US8729088B2, “Toll-like receptor modulators and treatment of diseases” (The Regents of the University of California, priority 2009, dated 2014).
# Target: T1, TLR7 (Mus musculus, UniProt P58681)
# T1 sequence (P58681 27-1050): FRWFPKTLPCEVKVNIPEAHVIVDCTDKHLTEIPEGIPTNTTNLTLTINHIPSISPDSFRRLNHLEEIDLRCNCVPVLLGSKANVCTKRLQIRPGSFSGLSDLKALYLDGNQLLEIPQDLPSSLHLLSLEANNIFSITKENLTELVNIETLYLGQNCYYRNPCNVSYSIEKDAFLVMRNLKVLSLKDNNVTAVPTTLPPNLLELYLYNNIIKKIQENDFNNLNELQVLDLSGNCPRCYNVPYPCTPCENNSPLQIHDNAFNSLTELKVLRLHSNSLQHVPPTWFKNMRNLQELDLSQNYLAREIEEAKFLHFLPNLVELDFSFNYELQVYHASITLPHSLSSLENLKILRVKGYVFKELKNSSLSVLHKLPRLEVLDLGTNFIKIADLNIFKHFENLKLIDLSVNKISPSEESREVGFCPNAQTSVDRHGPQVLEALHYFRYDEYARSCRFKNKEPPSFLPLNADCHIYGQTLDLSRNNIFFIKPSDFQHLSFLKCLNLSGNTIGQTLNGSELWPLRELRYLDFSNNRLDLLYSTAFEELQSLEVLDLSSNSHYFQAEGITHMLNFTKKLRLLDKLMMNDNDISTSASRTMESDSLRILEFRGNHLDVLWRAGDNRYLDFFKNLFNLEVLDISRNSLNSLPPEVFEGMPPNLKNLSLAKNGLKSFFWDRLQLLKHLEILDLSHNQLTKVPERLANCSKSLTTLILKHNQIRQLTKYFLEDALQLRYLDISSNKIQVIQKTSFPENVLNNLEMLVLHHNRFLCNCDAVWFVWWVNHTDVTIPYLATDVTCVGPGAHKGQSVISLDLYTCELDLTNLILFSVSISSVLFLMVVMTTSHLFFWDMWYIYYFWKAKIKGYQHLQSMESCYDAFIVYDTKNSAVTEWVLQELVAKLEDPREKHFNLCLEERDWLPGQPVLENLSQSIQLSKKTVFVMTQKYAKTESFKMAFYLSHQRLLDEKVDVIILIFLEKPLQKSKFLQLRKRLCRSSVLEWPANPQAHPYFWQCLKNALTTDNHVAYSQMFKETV
# Assay: In vitro cytokine induction in murine macrophages (RAW264.7, BMDM), ELISA
# Type: cell-based
# Parameters: endogenous in cells; host or cells: RAW264.7 (ATCC); primary BMDM from C57BL/6 mice
# Details: for potency compared to the unconjugated TLR7 (SM): ELISA; for potency of cytokine induction in comparison to the unmodified TLR7 agonist: in vitro and in vivo
# Experimental: In vitro measurements of cytokine induction were performed using the mouse leukemic monocyte macrophage cell line, RAW264.7. […] BMDM were prepared from C57BL/6 and TLR7 deficient mice as described in Wu, C. C et al., (2007) “Immunotherapeutic activity of a conjugate of a Toll-like receptor 7 ligand”, Proc Natl Acad Sci USA 104, 3990-5.
# In general, RAW264.7 cells or BMDM were incubated with various concentrations of conjugates for 18 hours at 37° C., 5% CO2 and culture supernatants were collected. The levels of cytokines (IL-6, IL-12 or TNF-α in the supernatants were determined by ELISA (BD Biosciences Pharmingen, La Jolla, Calif.) (Cho, H. J et al., “Immunostimulatory DNA-based vaccines induce cytotoxic lymphocyte activity by a T-helper cell-independent mechanism” [see comments], Nat Biotechnol 18, 509-14 (2000)), and the results presented in FIG. 2A-D. Data are mean±SEM of triplicates and are representative of three independent experiments. Minimum detection levels of these cytokines were 15 pg/mL.
# TNFα levels were measured (see FIG. 2A) by incubating approximately 1×10^6/mL RAW 264.7 cells with the various conjugates or controls, as described above. IL-6 and IL12 levels were measured (see FIG. 2B-D) by incubating 0.5×10^6/mL BMDM with the various conjugates or controls, as described above.
# Using a similar assay, the in vitro potency of the lipid-TLR agonist conjugates (FIG. 1, compound 6), PEG-TLR7 agonist conjugates (FIG. 1, compound 8), and PEG-lipid (FIG. 1, compound 9) conjugates were compared using a murine macrophage cell line, RAW264, and primary bone marrow derived macrophages (BMDM). The respective cells were stimulated for 18 hours with serially diluted TLR7 conjugates and the levels of cytokines released in the media were measured by ELISA and compared to the unconjugated TLR7 agonist (SM) (see FIG. 2A, panels A-D).
"potency as a cytokine inducer compared to the unconjugated agonist (normalized to the molar level of the unconjugated agonist, RAW264, BMDM, 18 hours)",potency of cytokine induction in comparison to the unmodified TLR7 agonist,SMILES,"potency compared to the unconjugated TLR7 (SM) (RAW264, BMDM, 18 hours)"
10 fold,–,"CCCCCCCC/C=C\CCCCCCCC(=O)OCC(COP(=O)(O)OCCNC(=O)c1ccc(Cn2c(=O)[nH]c3c(N)nc(OCCOC)nc32)cc1)OC(=O)CCCCCCC/C=C\CCCCCCCC (centres unmarked) [Compound 6, 2-(4-((6-amino-2-(2-methoxyethoxy)-8-oxo-7H-purin-9(8H)-yl)methyl)benzamido)ethyl 2,3-bis(oleoyloxy)propyl phosphate]",–
–,attenuated,"COCCOc1nc(N)c2nc(O)n(Cc3ccc(C(=O)NCCOCCOCCOCCOCCOCCOCCOCCOCCOCCOCCn4cc(CCC(=O)O)nn4)cc3)c2n1 [Compound 8, 3-(1-(1-(4-((6-amino-8-hydroxy-2-(2-methoxyethoxy)-9H-purin-9-yl)methyl)phenyl)-1-oxo-5,8,11,14,17,20,23,26,29,32-decaoxa-2-azatetratriacontan-34-yl)-1H-1,2,3-triazol-4-yl)propanoic acid]",less potency
–,restored,"CCCCCCCC/C=C\CCCCCCCC(=O)OCC(COP(=O)(O)OCCNC(=O)CCc1cn(CCOCCOCCOCCOCCOCCOCCOCCOCCOCCOCCNC(=O)c2ccc(Cn3c(O)nc4c(N)nc(OCCOC)nc43)cc2)nn1)OC(=O)CCCCCCC/C=C\CCCCCCCC (centres unmarked) [Compound 9, 2-(3-(1-(1-(4-((6-amino-8-hydroxy-2-(2-methoxyethoxy)-9H-purin-9-yl)methyl)phenyl)-1-oxo-5,8,11,14,17,20,23,26,29,32-decaoxa-2-azatetratriacontan-34-yl)-1H-1,2,3-triazole-4-yl)propanamido)ethyl 2,3-bis(oleoyloxy)propyl phosphate]",restored their potency to the similar level of the unconjugated TLR7 (SM)
